Experimental data taken from US20240277698A1, “METHODS OF USING ALDOSTERONE SYNTHASE INHIBITORS” (CINCOR PHARMA, INC., priority 2021, published 2024).
Read-outs that look alike come from different tables or passages of the source.

Key:
[1] = Treatment B: single 1000 mg metformin + 10 mg Compound 1
[2] = Metformin drug-drug interaction study: urine pharmacokinetics of metformin; assay type: in vivo, human
clinical = settings: human, in vivo, 1000 mg; for AUC(0-inf): Metformin plasma AUC0-inf; for AUC(0-t): Metformin plasma AUC0-t
[3] = Metformin drug-drug interaction study: safety (TEAEs); settings: for Any TEAEs leading to death, number of events / Any TEAEs leading to death, subjects: Treatment A = 1000 mg metformin alone (N = 26), Treatment B = 1000 mg metformin + 10 mg Compound 1 (N = 27)
Experimental: Safety was assessed throughout the study based on adverse events (AEs), physical examinations, weight measurements, electrocardiograms (ECGs), vital signs assessments (seated and orthostatic), and clinical laboratory evaluations.
The following safety assessments were performed: • AEs and SAEs; • Clinical laboratory test assessments; • Vital signs including heart rate, blood pressure (BP) (including orthostatic BP when indicated), respiration rate, and temperature; • 12-lead ECGs; • Physical examinations; and • Height, weight, and BMI.
Safety analyses were performed throughout the study based on the Safety Population. Safety was evaluated through assessments of AEs, physical examinations, ECGs, weight measurements, vital signs assessments (seated and orthostatic), and clinical laboratory evaluations.
A TEAE was defined as an AE that emerged, having been absent prior to the study, or an AE that worsened in severity after the first dose of any drug in this study. TEAEs were summarized by MedDRA SOC and PT for each treatment and overall. The number and percentage of subjects experiencing TEAEs and the number of TEAEs were tabulated. Subjects reporting more than 1 AE for a given MedDRA PT were counted only once for that term using the most severe incident. Subjects reporting more than 1 type of event within a SOC were counted only once for that SOC. The Safety Population was used for all the safety analyses.

aldosterone synthase = aldosterone synthase (Homo sapiens, UniProt P19099); settings: cited from earlier work
[4] = Treatment A: single 1000 mg metformin alone
[5] = Treatment B: single 1000 mg metformin + 10 mg Compound 1
[6] = Treatment B: 10 mg Compound 1 with single 1000 mg metformin

Sequence of aldosterone synthase (P19099 25-503, species assumed): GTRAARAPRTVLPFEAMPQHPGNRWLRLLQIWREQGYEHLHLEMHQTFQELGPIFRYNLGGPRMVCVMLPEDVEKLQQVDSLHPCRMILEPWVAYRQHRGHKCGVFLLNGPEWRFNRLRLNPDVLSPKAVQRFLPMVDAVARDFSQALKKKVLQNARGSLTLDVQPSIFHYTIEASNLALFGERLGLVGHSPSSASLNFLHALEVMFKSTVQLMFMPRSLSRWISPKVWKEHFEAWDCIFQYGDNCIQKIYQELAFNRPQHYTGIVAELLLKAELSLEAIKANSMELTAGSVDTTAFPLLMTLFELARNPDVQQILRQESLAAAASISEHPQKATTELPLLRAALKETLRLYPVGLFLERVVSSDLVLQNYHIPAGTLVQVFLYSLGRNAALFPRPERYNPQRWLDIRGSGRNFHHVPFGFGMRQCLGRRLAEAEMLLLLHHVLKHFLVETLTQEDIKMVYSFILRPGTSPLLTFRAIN

Compound: CN(C)C(=N)N=C(N)N [metformin]
- Metformin plasma AUC0-t, Geom LS Mean [1]: 10683.45 ng·h/mL
- metformin dose excreted in the urine ([2]; 1000 mg metformin, presence and absence of Compound 1): approximately 30%
- Metformin urine Fe0-3, Mean (CV %) [2, 4]: 11.76 (33.0) %
- Metformin urine Fe0-6, Mean (CV %) [2, 4]: 21.50 (27.2) %
- Metformin urine Fe0-9, Mean (CV %) [2, 4]: 25.40 (28.1) %
- Metformin urine Fe0-12, Mean (CV %) [2, 4]: 27.42 (26.2) %
- Metformin urine Fe0-18, Mean (CV %) [2, 4]: 29.11 (25.6) %
- Metformin urine Fe0-24, Mean (CV %) [2, 4]: 29.82 (25.1) %
- Metformin urine Fe0-30, Mean (CV %) [2, 4]: 30.21 (24.9) %
- Metformin urine Fe0-36, Mean (CV %) [2, 4]: 30.50 (24.7) %
- Metformin urine Fe0-48, Mean (CV %) [2, 4]: 30.90 (24.5) %
- Metformin urine Fe0-72, Mean (CV %) [2, 4]: 31.23 (24.2) %
- Metformin urine Fe0-3, Mean (CV %) [2, 5]: 10.47 (36.6) %
- Metformin urine Fe0-6, Mean (CV %) [2, 5]: 19.06 (32.4) %
- Metformin urine Fe0-9, Mean (CV %) [2, 5]: 23.11 (33.8) %
- Metformin urine Fe0-12, Mean (CV %) [2, 5]: 25.07 (32.5) %
- Metformin urine Fe0-18, Mean (CV %) [2, 5]: 26.52 (31.3) %
- Metformin urine Fe0-24, Mean (CV %) [2, 5]: 27.21 (30.6) %
- Metformin urine Fe0-30, Mean (CV %) [2, 5]: 27.62 (30.3) %
- Metformin urine Fe0-36, Mean (CV %) [2, 5]: 27.87 (30.0) %
- Metformin urine Fe0-48, Mean (CV %) [2, 5]: 28.25 (29.4) %
- Metformin urine Fe0-72, Mean (CV %) [2, 5]: 28.72 (28.9) %
- AUC(0-inf) (clinical; Geom LS Mean): 11100 ng·h/mL
- AUC(0-inf) (clinical; Mean (SD)): 11200 ng·h/mL
- AUC(0-t) (clinical; Geom LS Mean): 11000 ng·h/mL
- AUC(0-t) (clinical; Mean (SD)): 11200 ng·h/mL
- Any TEAEs leading to death, number of events [3]: 0 e
- Any TEAEs leading to death, subjects [3]: 0 (0.0) n (%)
- subjects experiencing diarrhoea ([3]; human, in vivo): 3 (11.5%)
- subjects experiencing nausea ([3]; human, in vivo): 1 (3.7%)
- subjects experiencing upper abdominal pain ([3]; human, in vivo): One (3.7%)

Compound: N#Cc1ccc([C@H]2CCc3cncn32)c(F)c1 [LCI1699]
- specificity for aldosterone synthase (aldosterone synthase; clinical trials by Novartis, discontinued): lack of specificity for aldosterone synthase
- ACTH associated with aldosterone reductions (aldosterone synthase; previously observed): corresponding increase in ACTH
- increase in predose 11-deoxycorticosterone levels (aldosterone synthase; previously observed): up to 10 fold

Compound: CCC(=O)NC1CCCc2c(-c3ccc4c(c3)CCC(=O)N4C)cncc21 (stereo not drawn) [Compound 1, N-(4-(1-methyl-2-oxo-1,2,3,4-tetrahydroquinolin-6-yl)-5,6,7,8-tetrahydroisoquinolin-8-yl)propionamide]
- Compound 1 plasma AUC%extrap, Mean (SD) [6]: 9.9 (5.2) %
- Compound 1 plasma λz, Mean (SD) [6]: 0.033 (0.008) 1/h
- Tmax (human, plasma): 1.3 h
- AUC(0-t) (human, plasma, Compound 1 plasma AUC0-24, Mean (SD), Treatment B: 10 mg Compound 1 with single 1000 mg metformin): 1660 ng·h/mL
- AUC(0-t) (human, plasma, Compound 1 plasma AUC0-72, Mean (SD), Treatment B: 10 mg Compound 1 with single 1000 mg metformin): 2870 ng·h/mL
- effect on metformin renal clearance ([2]; 10 mg Compound 1 2 hours prior to metformin dosing): did not result in a reduction
- Any TEAEs leading to death, number of events [3]: 0 e
- Any TEAEs leading to death, subjects [3]: 0 (0.0) n (%)
